What was measured:
Assay type in all cases: cell-based
[1] = molecular target: T1, mouse GPR34 (Mus musculus, UniProt Q9R1K6); experiment: TGFα shedding assay, agonistic activity on GPR34; set-up: key to GPR34/LPS2 agonistic activity, TGFα shedding assay: an activity that is 100 folds that of control compound 1 as +++++; an activity that is 10 folds that of control compound 1 as ++++; the activity of the control compound 1 (LPS18:1) as +++; an activity that is 1/10 as ++; an activity that is 1/100 as +; an activity below that as −; settings: for GPR34/LPS2 agonistic activity, TGFα shedding assay: HEK293 cells transfected with mouse GPR34 and AP labeled TGFα, activity relative to control compound 1 (LPS18:1) = +++; for receptor selectivity of agonist activity among GPR34, P2Y10, GPR174 (graphs of FIG. 1): TGFα shedding assay, HEK293 cells, AP activity (%) vs concentration
T1 construct: expressed in transfected cells; host or cells: HEK293
T1 sequence (Q9R1K6 whole entry): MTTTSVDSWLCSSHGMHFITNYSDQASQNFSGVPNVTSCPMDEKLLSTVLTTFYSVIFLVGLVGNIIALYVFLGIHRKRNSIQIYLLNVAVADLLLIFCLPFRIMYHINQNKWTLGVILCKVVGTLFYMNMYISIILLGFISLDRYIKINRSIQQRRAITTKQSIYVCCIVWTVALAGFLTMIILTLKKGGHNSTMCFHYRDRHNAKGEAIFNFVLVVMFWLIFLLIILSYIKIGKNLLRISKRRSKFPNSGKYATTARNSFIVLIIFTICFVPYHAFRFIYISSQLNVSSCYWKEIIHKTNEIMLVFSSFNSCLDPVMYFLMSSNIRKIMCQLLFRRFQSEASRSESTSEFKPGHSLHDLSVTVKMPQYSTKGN
Procedure: (§1) [Test Example 1]Assay of Agonistic Activity by TGFα Shedding Assay
(§2) HEK293 cells were suspended in the Dulbecco's modified Eagle's medium (DMEM) containing 10% fetal bovine serum (FCS) to exist in an amount of 2.0×10^5 cells/mL, and they were seeded in 60 mm dishes at 4 mL per dish. Transfection of different expression vectors was performed using LipofectAMINE 2000 (Invitrogen) after 24 hours of culture under the presence of 5% CO2. For each 60 mm dish, 1 μg of AP labeled TGFα plasmid vectors were used, and 1 μg of pCAGGS plasmid vectors of mouse GPR34, P2Y10 or GPR174 were used. The plasmid vectors were prepared by methods disclosed in Patent Documents 2 and 5. Note that the AP labeled TGFα is a protein comprising a membrane-bound pro-TGFα whose N terminal end is fused with human placental alkaline phosphatase, and the plasmid vector of the AP labeled TGFα may be produced based on the teaching of Tokumaru et al., J Cell Biol 151, 209-220 (2000). After 24 hours of transfection, the cells were peeled off using trypsin/EDTA, and they were re-suspended in a culture medium to form an amount of 2.0×10^4 cells/well to be seeded to a 96-well plate. Hanks' Balanced Salt Solution (HBSS, containing 5 mM HEPES) was used for the re-suspended solution when stimulating with the compound. After it was left still for 30 min., subject compounds of various concentrations were added and the solutions were left still for another 1 hour under the presence of 5% CO2. The 96-well plate was subjected to centrifugation (190×g, 3 min.), then 80 μl of supernatant was transferred to a different 96-well plate. A reaction buffer (40 mM Tris-HCl (pH 9.5)) containing 10 mM p-nitrophenyl phosphate (p-NPP) was added in an amount of 80 μL to the supernatant and cells. The OD405 was measured with a micro plate reader (background), then after heating at 37° C. for an hour, OD405 was re-measured. The AP activity for each well was obtained by subtracting the background from the second absorbance and plugging the difference into the following formula.
(§3) In addition, the value obtained by subtracting the AP activity (%) of the non-stimulated group was used in the vertical axis to create a graph. The graphs of the test results for Example 3 (lysoPS sn-1-deoxy sn3 C3-ph-o-OBn-m-Oph) and Example 31 (lysoPS sn-1-OMe sn3 C3-ph-o-OBn-m-Oph) are shown in FIG. 1.
(§4) The obtained activity is shown by plotting the compound concentration and AP activity (%), then representing the activity of the control compound 1 (LPS18:1) as +++, an activity that is 10 folds that of control compound 1 as ++++, an activity that is 100 folds that of control compound 1 as +++++, an activity that is 1/10 as ++, and an activity that is 1/100 as +, and an activity below that as −.

[2] = molecular target: T2, mouse GPR174 (Mus musculus, UniProt Q3U507); experiment: TGFα shedding assay, agonistic activity on GPR174; set-up: key: an activity that is 100 folds that of control compound 1 as +++++; an activity that is 10 folds that of control compound 1 as ++++; the activity of the control compound 1 (LPS18:1) as +++; an activity that is 1/10 as ++; an activity that is 1/100 as +; an activity below that as −; settings: HEK293 cells transfected with mouse GPR174 and AP labeled TGFα; activity relative to control compound 1 (LPS18:1) = +++
T2 construct: expressed in transfected cells; host or cells: HEK293
T2 sequence (Q3U507 whole entry): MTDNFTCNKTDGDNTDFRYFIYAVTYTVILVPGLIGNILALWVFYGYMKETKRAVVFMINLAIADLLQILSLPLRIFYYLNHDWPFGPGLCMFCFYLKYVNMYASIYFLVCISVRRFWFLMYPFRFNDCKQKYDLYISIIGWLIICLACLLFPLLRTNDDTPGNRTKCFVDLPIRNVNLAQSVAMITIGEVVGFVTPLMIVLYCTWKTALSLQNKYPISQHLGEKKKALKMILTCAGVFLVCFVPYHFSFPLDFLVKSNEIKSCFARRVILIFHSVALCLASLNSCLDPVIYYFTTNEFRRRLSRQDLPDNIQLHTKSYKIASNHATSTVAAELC
Procedure: as §1, §2, §3, §4

[3] = molecular target: T3, mouse P2Y10 (Mus musculus, UniProt Q8BFU7); experiment: TGFα shedding assay, agonistic activity on P2Y10; set-up: key: an activity that is 100 folds that of control compound 1 as +++++; an activity that is 10 folds that of control compound 1 as ++++; the activity of the control compound 1 (LPS18:1) as +++; an activity that is 1/10 as ++; an activity that is 1/100 as +; an activity below that as −; settings: HEK293 cells transfected with mouse P2Y10 and AP labeled TGFα; activity relative to control compound 1 (LPS18:1) = +++
T3 construct: expressed in transfected cells; host or cells: HEK293
T3 sequence (Q8BFU7 whole entry): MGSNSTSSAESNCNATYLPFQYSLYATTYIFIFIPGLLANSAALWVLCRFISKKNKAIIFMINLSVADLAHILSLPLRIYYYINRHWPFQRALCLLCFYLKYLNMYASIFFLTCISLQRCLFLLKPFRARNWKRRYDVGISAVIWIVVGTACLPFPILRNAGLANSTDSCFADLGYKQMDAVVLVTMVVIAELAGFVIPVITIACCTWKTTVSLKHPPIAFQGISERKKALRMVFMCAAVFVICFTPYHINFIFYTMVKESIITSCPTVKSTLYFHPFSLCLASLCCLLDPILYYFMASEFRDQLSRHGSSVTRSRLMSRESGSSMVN
Procedure: as §1, §2, §3, §4

SMILES | GPR34/LPS2 agonistic activity, TGFα shedding assay [1] | GPR174/LPS3 agonistic activity, TGFα shedding assay [2] | P2Y10/LPS2 agonistic activity, TGFα shedding assay [3] | receptor selectivity of agonist activity among GPR34, P2Y10, GPR174 (graphs of FIG. 1) [1]
CCCCCCCC/C=C\CCCCCCCC(=O)OC[C@H](C)OP(=O)(O)OC[C@H](N)C(=O)O [Example 2, (9Z)-Octadeca-9-enoic acid (2S)-2-[((2S)-2-amino-2-carboxy-ethoxy)-hydroxy-phosphoryloxy]-propyl ester] | +++ | +~++ | ++~+++ | 
CCCCCCCCCCCOc1ccccc1CCC(=O)O[C@H]1CCOC[C@@H]1OP(=O)(O)OC[C@H](N)C(=O)O [Example 10, (2S)-2-amino-3-(hydroxy-{(3S,4S)-4-[3-(2-undecyloxy-phenyl)-propionyloxy]-tetrahydro-pyran-3-yloxy}-phosphoryloxy)-propionic acid] | − | − | ++~+++ | 
CCCCCCCC/C=C\CCCCCCCC(=O)OC[C@H](COC)OP(=O)(O)OC[C@H](N)C(=O)O [Example 5, (9Z)-Octadeca-9-enoic acid (2S)-2-[((2S)-2-amino-2-carboxy-ethoxy)-hydroxy-phosphoryloxy]-3-methoxy-propyl ester] | ++ | − | + | 
C[C@H](COC(=O)CCc1ccccc1OCc1cccc(Oc2ccccc2)c1)OP(=O)(O)OC[C@H](N)C(=O)O [Example 3, (2S)-2-amino-3-[hydroxyl-((1R)-1-methyl-2-{3-[2-(3-phenoxy-benzyloxy)-phenyl]-propionyloxy}-ethoxy)-phosphoryloxy]-propionic acid] | +++++ | − | ++ | agonists having selectivity against GPR34
CCCCCCCCCCCOc1ccccc1CCC(=O)OC[C@H]1OCC=C[C@@H]1OP(=O)(O)OC[C@H](N)C(=O)O [Example 19, (2S)-2-amino-3-(hydroxyl-{(2R,3S)-2-[3-(2-undecyloxy-phenyl)-propionyloxymethyl]-3,6-dihydro-2H-pyran-3-yloxy}-phosphoryloxy)-propionic acid] | − | − | ++ | 
COC[C@H](COC(=O)CCc1ccccc1OCc1cccc(Oc2ccccc2)c1)OP(=O)(O)OC[C@H](N)C(=O)O [Example 31, (2S)-2-amino-3-[hydroxy-((1R)-1-methoxymethyl-2-{3-[2-(3-phenoxy-benzyloxy)-phenyl]-propionyloxy}-ethoxy)-phosphoryloxy]-propionic acid] | +++++ | − | +~++ | agonists having selectivity against GPR34
N[C@@H](COP(=O)(O)OC[C@H]1OCCC[C@H]1OC(=O)CCc1ccccc1OCc1cccc(Oc2ccccc2)c1)C(=O)O [Example 18] | ++++~+++++ | − | − | 
CCCCCCCCCCCOc1ccccc1CCC(=O)O[C@H]1COCC[C@@H]1OP(=O)(O)OC[C@H](N)C(=O)O [Example 11, (2S)-2-amino-3-(hydroxy-{(3S,4S)-3-[3-(2-undecyloxy-phenyl)-propionyloxy]-tetrahydro-pyran-4-yloxy}-phosphoryloxy)-propionic acid] | − | − | ++ | 
N[C@@H](COP(=O)(O)O[C@@H]1CCCO[C@@H]1COC(=O)CCc1ccccc1OCc1cccc(Oc2ccccc2)c1)C(=O)O [Example 17] | ++++ | − | − | 
CCCCCCCC/C=C\CCCCCCCC(=O)OC[C@H]1OCC=C[C@@H]1OP(=O)(O)OC[C@H](N)C(=O)O [Example 23, (9Z)-Octadeca-9-enoic acid (2R,3S)-3-[((2S)-2-amino-2-carboxy-ethoxy)-hydroxy-phosphoryloxy]-3,6-dihydro-2H-pyran-2-ylmethyl ester] | ++ | − | ++ | 
N[C@@H](COP(=O)(O)OC[C@H]1OCCC[C@@H]1OC(=O)CCc1ccccc1OCc1cccc(Oc2ccccc2)c1)C(=O)O [Example 13, (2S)-2-amino-3-[hydroxyl-((2R,3S)-3-{3-[2-(3-phenoxy-benzyloxy)-phenyl]-propionyloxy}-tetrahydro-pyran-2-ylmethoxy)-phosphoryloxy]-propionic acid] | ++ | − | −~+ | 
CCCCCCCC/C=C\CCCCCCCC(=O)OC[C@H]1OCCC[C@H]1OP(=O)(O)OC[C@H](N)C(=O)O [Example 15, (9Z)-Octadeca-9-enoic acid (2R,3R)-3-[((2S)-2-amino-2-carboxy-ethoxy)-hydroxy-phosphoryloxy]-tetrahydropyran-2-ylmethyl ester] | ++ | − | − | 
N[C@@H](COP(=O)(O)O[C@@H]1C=CCO[C@@H]1COC(=O)CCc1ccccc1OCc1cccc(Oc2ccccc2)c1)C(=O)O [Example 26, (2S)-2-amino-3-[hydroxyl-((2R,3R)-2-{3-[2-(3-phenoxybenzyloxy)-phenyl]-propionyloxymethyl}-3,6-dihydro-2H-pyran-3-yloxy)-phosphoryloxy]-propionic acid] | +++~++++ | − | ++ | 
CCCCCCCCCCCOc1ccccc1CCC(=O)O[C@@H]1COCC[C@H]1OP(=O)(O)OC[C@H](N)C(=O)O [Example 9, (2S)-2-amino-3-(hydroxyl-{(3R,4R)-3-[3-(2-undecyloxy-phenyl)-propionyloxy]-tetrahydropyran-4-yloxy}-phosphoryloxy)-propionic acid] | ++++~+++++ | − | ++~+++ | 
CCCCCCCC/C=C\CCCCCCCC(=O)OC[C@@H](C)OP(=O)(O)OC[C@H](N)C(=O)O [Example 1, (9Z)-Octadeca-9-enoic acid (2R)-2-[((2S)-2-amino-2-carboxy-ethoxy)-hydroxy-phosphoryloxy]-propyl ester] | ++++ | +~++ | ++ | 
